# Measured values: ChEMBL document CHEMBL3045201, “Quantitative Structure-Activity Relationships of Fluazinam and Related Fungicidal N-phenylpyridinamines” (1996)
# Active and inactive are the calls of the source. The rule behind the calls is not given here.
# How the values were obtained:
# Pyricularia oryzae [1] = test: Fungicidal activity against Magnaporthe oryzae infected in 24 hr compound pre-treated Oryza sativa cv. Chukyoasahi assessed as disease control measured after 10 days; assay type: functional
# Podosphaera fuliginea [2] = test: Fungicidal activity against Podosphaera fuliginea infected in 24 hr compound pre-treated cucumber plant assessed as disease control measured after 10 days; assay type: functional
# Rhizoctonia solani [3] = test: Fungicidal activity against Rhizoctonia solani infected in 24 hr compound pre-treated Oryza sativa cv. Chukyoasahi assessed as disease control measured after 10 days; assay type: functional
# Pyricularia oryzae [4] = test: Fungicidal activity against Magnaporthe oryzae assessed as SH-inhibition; assay type: functional, organism-based
# Podosphaera fuliginea [5] = test: Fungicidal activity against Podosphaera fuliginea assessed as SH-inhibition; assay type: functional, organism-based
# Botrytis cinerea [6] = test: Fungicidal activity against Botryotinia fuckeliana assessed as SH-inhibition; assay type: functional, organism-based
# Podosphaera fuliginea [7] = test: Fungicidal activity against Podosphaera fuliginea assessed as mitochondrial uncoupling activity; assay type: functional, organism-based
# Rhizoctonia solani [8] = test: Fungicidal activity against Rhizoctonia solani assessed as SH-inhibition; assay type: functional, organism-based
# Botrytis cinerea [9] = test: Fungicidal activity against Botryotinia fuckeliana assessed as mitochondrial uncoupling activity; assay type: functional, organism-based
# Rhizoctonia solani [10] = test: Fungicidal activity against Rhizoctonia solani assessed as mitochondrial uncoupling activity; assay type: functional, organism-based
# Pyricularia oryzae [11] = test: Fungicidal activity against Magnaporthe oryzae assessed as mitochondrial uncoupling activity; assay type: functional, organism-based
# Rattus norvegicus = species on record: Rattus norvegicus; test: Inhibition of mitochondrial uncoupling in Rattus norvegicus (rat); assay type: functional, organism-based
SMILES,I90 (Pyricularia oryzae [1]) [ppm],I90 (Podosphaera fuliginea [2]) [ppm],I90 (Rhizoctonia solani [3]) [ppm],further results
CCOc1c(C(F)(F)F)cc([N+](=O)[O-])c(Nc2ncc(C(F)(F)F)cc2Cl)c1[N+](=O)[O-],16,16,16,
CC(C)COc1c(C(F)(F)F)cc([N+](=O)[O-])c(Nc2ncc(C(F)(F)F)cc2Cl)c1[N+](=O)[O-],>500,>500,63,
COc1c(C(F)(F)F)cc([N+](=O)[O-])c(Nc2ncc(C(F)(F)F)cc2Cl)c1[N+](=O)[O-],<16,63,16,
C[S+]([O-])c1c(C(F)(F)F)cc([N+](=O)[O-])c(Nc2ncc(C(F)(F)F)cc2Cl)c1[N+](=O)[O-] (centres undefined),63,>500,>500,
O=[N+]([O-])c1cc(C(F)(F)F)c(Br)c([N+](=O)[O-])c1Nc1ncc(C(F)(F)F)cc1Cl,16,63,63,
O=[N+]([O-])c1cc(C(F)(F)F)c(OCC(F)(F)F)c([N+](=O)[O-])c1Nc1ncc(C(F)(F)F)cc1Cl,>500,16,63,
CCCOc1c(C(F)(F)F)cc([N+](=O)[O-])c(Nc2ncc(C(F)(F)F)cc2Cl)c1[N+](=O)[O-],63,>500,16,
CSc1c(C(F)(F)F)cc([N+](=O)[O-])c(Nc2ncc(C(F)(F)F)cc2Cl)c1[N+](=O)[O-],<16,16,16,
Nc1c(C(F)(F)F)cc([N+](=O)[O-])c(Nc2ncc(C(F)(F)F)cc2Cl)c1[N+](=O)[O-],>500,>500,>500,
CCCCOc1c(C(F)(F)F)cc([N+](=O)[O-])c(Nc2ncc(C(F)(F)F)cc2Cl)c1[N+](=O)[O-],>500,>500,>500,
O=[N+]([O-])c1cc(C(F)(F)F)c(I)c([N+](=O)[O-])c1Nc1ncc(C(F)(F)F)cc1Cl,16,>500,>500,
O=[N+]([O-])c1cc(C(F)(F)F)c(Cl)c([N+](=O)[O-])c1Nc1ncc(C(F)(F)F)cc1Cl [FLUAZINAM],<16,63,,Activity (Pyricularia oryzae [4]): Active; Activity (Podosphaera fuliginea [5]): inactive; Activity (Botrytis cinerea [6]): Active; Activity (Podosphaera fuliginea [7]): Active; Activity (Rhizoctonia solani [8]): Active; Activity (Botrytis cinerea [9]): inactive; Activity (Rhizoctonia solani [10]): Active; Activity (Pyricularia oryzae [11]): Active; Activity (Rattus norvegicus): Active
